# Experimental data from article PMC10165273, “Itch receptor MRGPRX4 interacts with the receptor activity–modifying proteins” (The Journal of Biological Chemistry, 2023).
# pEC50: −log10 of the molar value. Values joined by “and” are separate entries in the source; they are usually repeats but may differ in a detail not shown here. Equal entries are not always repeated. Where two headings read alike, the source gives them in different places.
# What was measured:
# MRGPRX4 + RAMP2 = target: T1, MRGPRX4 + RAMP2 (Homo sapiens, UniProt Q96LA9); experiment: IP1 accumulation, MRGPRX4 coexpressed with RAMP2; assay type: cell-based; parameters: key to response to agonist, X4:ramp2.I:2: % IP1: mock-transfected unstimulated = 0%, fully stimulated MRGPRX4 = 100%; key to IP1 Basal / response to agonist, X4:ramp2.I:0.25 / response to agonist, X4:ramp2.I:0.5 / response to agonist, X4:ramp2.I:1: % IP1; unstimulated mock = 0%, fully stimulated MRGPRX4 = 100%; conditions: for pEC50: read-out: IP1 EC50; for Emax: read-out: IP1 Emax; for EC50: read-out: IP1 logEC50 (converted); for IP1 accumulation (normalized): MRGPRX4+RAMP2 1pg 1:1, Supplementary Figure 5e, 5g
# T1 construct: expressed in transfected cells; host or cells: HEK293T
# Method: HEK293T cells were transfected with 1 pg/cell of MRGPRX4 DNA, and the amount of DNA was kept constant at 2 pg/cell with pcDNA3.1(+) empty vector, unless otherwise specified. Twenty four hours after transfection, IP1 assay was performed as previously described ([51]). When applicable, cells were treated with 1 μM YM254890 (YM) or different concentrations of U73122 for 1 h prior to addition of agonist or buffer. After incubation for 2 h, HTRF reagents and IP1 calibration standards were added and incubated for 2 h in the dark at room temperature. Time-resolved fluorescence signals were read on the BioTek Synergy NEO-TRF Hybrid multi-mode reader (BioTek Instruments). All data were carried out in three independent experiments with three technical replicate each.
# For RAMP DNA titration assay, HEK293T cells were cotransfected with a constant amount of 1 pg/cell of FLAG-MRGPRX4-GFP10-1D4 to which a serial dilution of 1, 0.75, 0.5, 0.25, or 0 pg/cell of each HA-RAMP-OLLAS was added. For a homogenous transfection of MRGPRX4, a master mix of MRGPRX4 DNA was made prior to addition of the RAMP DNA. […]
# Data reduction, standard calibration, and transformation of HTRF data were performed as previously described ([51]). Normalized IP1 values were calculated relative to the unstimulated mock-transfected cells (set to 0%) and fully stimulated MRGPRX4 (alone if applicable) (set to 100%).
# [1] = test system: mock-transfected HEK293T cells; experiment: IP1 accumulation, mock-transfected cells; assay type: cell-based, human; parameters: IP1 Basal / IP1 span / IP1 Emax / IP1 accumulation, dose-response (Figure 1a) / IP1 accumulation with YM (Figure 1c) / IP1 accumulation: unit not given here; conditions: for IP1 accumulation, dose-response (Figure 1a): pcDNA (mock), individual replicates; for IP1 accumulation: mock, Fig S3a-c
# [2] = MRGPRX4 + RAMP2 0.25 pg (Fig. S3), normalized per agonist
# [3] = MRGPRX4 + RAMP2 0.5 pg (Fig. S3), normalized per agonist
# [4] = MRGPRX4 + RAMP2 1 pg (Fig. S3), normalized per agonist
# [5] = MRGPRX4 + RAMP2 2 pg (Fig. S3), normalized per agonist
# [6] = Tet-On MRGPRX4:RAMP2 Ratio 1:0.5 (Fig. S5E)
# [7] = Tet-On MRGPRX4:RAMP2 Ratio 1:0.75 (Fig. S5E)
# [8] = Tet-On MRGPRX4:RAMP2 Ratio 1:1 (Fig. S5E)
# T1 sequence (Q96LA9 whole entry): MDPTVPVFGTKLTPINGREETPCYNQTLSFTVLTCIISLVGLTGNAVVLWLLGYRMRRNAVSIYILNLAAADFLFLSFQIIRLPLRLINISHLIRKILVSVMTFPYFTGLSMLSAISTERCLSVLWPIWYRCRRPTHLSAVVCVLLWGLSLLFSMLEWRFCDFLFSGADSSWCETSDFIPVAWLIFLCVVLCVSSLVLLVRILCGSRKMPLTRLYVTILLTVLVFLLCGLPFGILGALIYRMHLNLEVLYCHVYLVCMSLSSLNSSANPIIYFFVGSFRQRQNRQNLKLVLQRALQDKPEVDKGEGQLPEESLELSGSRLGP
smiles,measurement,setting,value
CC(C)[C@H]1CC[C@H](C(=O)N[C@H](Cc2ccccc2)C(=O)O)CC1 [Nateglinide],"response to agonist, X4:ramp2.I:0.5","MRGPRX4 + RAMP2; Figure 4c-f, agonist 100µM, X4:ramp2 1:0.5, MRGPRX4 = 100",61.7207 and 60.1764
same,"response to agonist, X4:ramp2.I:1","MRGPRX4 + RAMP2; Figure 4c-f, agonist 100µM, X4:ramp2 1:1, MRGPRX4 = 100",42.7283 and 40.01
same,"response to agonist, X4:ramp2.I:2","MRGPRX4 + RAMP2; Figure 4c-f, agonist 100µM, X4:ramp2 1:2, MRGPRX4 = 100",16.754 and 20.2407
same,IP1 Basal,MRGPRX4 + RAMP2; [2],16.83
same,IP1 span (Emax minus basal),MRGPRX4 + RAMP2; [2],84.5%
same,pEC50,MRGPRX4 + RAMP2; [2],4.93
same,Emax,MRGPRX4 + RAMP2; [2],101%
same,IP1 Basal,MRGPRX4 + RAMP2; [3],13.85
same,IP1 span (Emax minus basal),MRGPRX4 + RAMP2; [3],55.7%
same,Emax,MRGPRX4 + RAMP2; [3],69.5%
same,EC50,MRGPRX4 + RAMP2; [3],6.68 µM
same,IP1 Basal,MRGPRX4 + RAMP2; [4],8.724
same,IP1 span (Emax minus basal),MRGPRX4 + RAMP2; [4],37.8%
same,Emax,MRGPRX4 + RAMP2; [4],46.5%
same,EC50,MRGPRX4 + RAMP2; [4],9.29 µM
same,IP1 Basal,MRGPRX4 + RAMP2; [5],3.623
same,IP1 span (Emax minus basal),MRGPRX4 + RAMP2; [5],25.2%
same,pEC50,MRGPRX4 + RAMP2; [5],4.57
same,Emax,MRGPRX4 + RAMP2; [5],28.8%
same,IP1 Basal,MRGPRX4 + RAMP2; [6],7.610
same,IP1 span (Emax minus basal),MRGPRX4 + RAMP2; [6],68%
same,pEC50,MRGPRX4 + RAMP2; [6],5.06
same,Emax,MRGPRX4 + RAMP2; [6],75.6%
same,IP1 Basal,MRGPRX4 + RAMP2; [7],4.862
same,IP1 span (Emax minus basal),MRGPRX4 + RAMP2; [7],63.1%
same,pEC50,MRGPRX4 + RAMP2; [7],4.98
same,Emax,MRGPRX4 + RAMP2; [7],67.9%
same,EC50,MRGPRX4 + RAMP2; [7],10.5 µM
same,IP1 Basal,MRGPRX4 + RAMP2; [8],3.554
same,IP1 span (Emax minus basal),MRGPRX4 + RAMP2; [8],52.2%
same,pEC50,MRGPRX4 + RAMP2; [8],4.78
same,Emax,MRGPRX4 + RAMP2; [8],55.7%
same,IP1 accumulation (normalized),MRGPRX4 + RAMP2; log [nateglinide] (M) -4,49.0479 and 42.2633 and 46.2108
same,IP1 accumulation (normalized),MRGPRX4 + RAMP2; log [nateglinide] (M) -4.69897,35.8073 and 28.8485 and 29.8595
same,IP1 accumulation (normalized),MRGPRX4 + RAMP2; log [nateglinide] (M) -5.39794,15.3369 and 12.9717 and 15.4367
same,IP1 accumulation (normalized),MRGPRX4 + RAMP2; log [nateglinide] (M) -6.09691,5.582 and 4.886 and 4.986
same,IP1 accumulation (normalized),MRGPRX4 + RAMP2; log [nateglinide] (M) -6.79588,3.625 and 3.074 and 3.358
same,IP1 accumulation (normalized),MRGPRX4 + RAMP2; log [nateglinide] (M) -7.49485,3.035 and 3.588 and 4.695
same,"IP1 accumulation, dose-response (Figure 1a)",[1]; log [agonist] (M) -4,0.2271 and 0.3078 and 0.4629 and -0.5571 and 0.3306 and 0.0456 and 0.8656 and -0.04322 and 0.1347 and -0.9843 and -0.02794 and -0.8867
same,"IP1 accumulation, dose-response (Figure 1a)",[1]; log [agonist] (M) -4.95424,0.4814 and 0.1593 and 0.9731 and 0.2847 and 0.3905 and 0.01267 and 0.9879 and -0.1469 and 0.1915 and -0.5702 and -0.3086 and -0.9418
same,"IP1 accumulation, dose-response (Figure 1a)",[1]; log [agonist] (M) -5.90849,0.6831 and 0.2899 and 0.8301 and 0.7307 and 0.1868 and 0.3562 and 0.4874 and 0.05414 and 0.7331 and -0.7448 and -0.08445 and -0.6788
same,"IP1 accumulation, dose-response (Figure 1a)",[1]; log [agonist] (M) -6.86273,1.046 and 0.7412 and 1.424 and 1.025 and 0.6018 and 0.6703 and 1.266 and 0.6126 and 1.453 and 0.03754 and 0.2747 and 0.1665
same,IP1 accumulation,[1]; log [Nateglinide] (M) -4,1.284 and 1.14
same,IP1 accumulation,[1]; log [Nateglinide] (M) -4.69897,0.9537 and 0.9999 and 1.07
same,normalized IP1 accumulation,"[1]; pcDNA, log [agonist] (M) -5.39794",0.47 and 0.5436 and 0.4562
